Results reported in US20080226596A1, “Therapeutic compositions and methods useful in treating hepatitis” (priority 2006, published 2008).

Experiments:
PRL-2 = target: T1, PRL-2 (Homo sapiens, UniProt Q12974); assay: In vitro PTPase assay, recombinant PRL-2; format: biochemical
T1 construct: GST (N); made in house; host or cells: DHSa (DH5a) bacteria
Excerpt: (§1) Sodium stibogluconate, suramin, sodium orthovanadate and GST fusion protein of SHP-1 have been described previously (Pathak et al., J. Imumol. 167, 3391 (2001)). Meglumine antimonate was obtained from Aventis. cDNAs of human PRL-1, PRL-2 and PRL-3 coding region were derived by RT-PCR from H9 cells (Safai, et al., Lancet 1, 1438 (1984)) and inserted in frame into the pGEX vector. cDNA of PRL-1R86 was generated by recombinant DNA technique using PRL-1 cDNA as template following established procedures (Jiao, et al., Mol. Cell. Biol. 16, 6985 (1996)). […]
(§2) In vitro PTPase assays were used to determine the effects of compounds on recombinant PTPases, following established procedures using a synthetic phosphotyrosine peptide or DiFMUP as the substrate (Pathak et al., J. Imumol. 167, 3391 (2001)). […] PTPase activity of individual reactions was measured by adding 100 µL of malachite green solution (UBI) and then quantifying the amounts of free phosphate cleaved by the PTPase from the peptide substrate by spectrometry (OD660 nm). […] Relative PTPase activities were calculated based on the formula: (PTPase activity in the presence of an inhibitory compound/PTPase activity in the absence of the compound)× 100%. […]

GSTm8 = assay: In vitro PTPase assay, GSTm8; format: biochemical; details: 3-4 μg/ml or 10-100 μg/ml
Excerpt: (§3) In vitro PTPase assays were used to determine the effects of levamisole (Sigma), pentamidine (American Pharmaceutical Partners, Inc.), and ketoconazole (Sigma) on recombinant PTPases, following established procedures (Pathak et al., J. Imumol. 167, 3391 (2001); Pathak et al., Leukemia 16, 2285 (2002), Yi et al., J. Immunol. 169, 5978 (2002)) using a synthetic phosphotyrosine peptide or DiFMUP as the substrate as detailed above in section I.A.2.

MKP1 = target: T2, MKP1 (Homo sapiens, UniProt P28562); assay: In vitro PTPase assay, GST/MKP1; format: biochemical
T2 construct: GST (N); made in house; host or cells: DH5a bacteria
T2 sequence (P28562 1-367): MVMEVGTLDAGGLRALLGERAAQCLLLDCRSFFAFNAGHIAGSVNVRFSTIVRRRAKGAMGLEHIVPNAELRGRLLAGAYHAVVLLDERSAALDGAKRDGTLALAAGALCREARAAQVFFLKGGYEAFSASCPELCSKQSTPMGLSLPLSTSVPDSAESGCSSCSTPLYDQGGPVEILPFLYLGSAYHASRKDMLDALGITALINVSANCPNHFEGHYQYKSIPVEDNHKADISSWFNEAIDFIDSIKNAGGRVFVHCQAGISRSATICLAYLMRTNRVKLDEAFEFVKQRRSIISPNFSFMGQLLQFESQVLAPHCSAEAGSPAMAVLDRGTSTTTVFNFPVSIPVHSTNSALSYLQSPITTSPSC
Procedure: In vitro PTPase activities were measured using the commercial protein tyrosine phosphatase assay kit (Upstate Biotechnology, Inc. (“UBI”)) following established procedure known to one of skill in the art. This assay measures the in vitro dephosphorylation of a synthetic phosphotyrosine peptide of the sequence Arg-Arg-Leu-Ile-Glu-Asp-Ala-Gle-Tyr-Ala-Ala-Arg-Gly, wherein the tyrosine is phosphorylated (SEQ ID NO: 3). Briefly, 0.01 µg of GST/PTPase fusion proteins was incubated in 50 μL of Tris buffer (10 mM Tris, pH 7.4) containing different concentrations of inhibitors or chemicals (0-1,000 μg/ml) at 22° C. for 10 minutes, followed by addition of 0.2 mM of the phosphotyrosine peptide and incubation at 22° C. for 18 hours. 100 μL of Malachite Green solution was added and incubated for 5 minutes, and the absorbance at 660 nm was measured after 5 minutes.
as §3

PRL-1 = target: T3, PRL-1 (Homo sapiens, UniProt Q93096); assay: In vitro PTPase assay, recombinant PRL-1; format: biochemical; details: 0.1-100 μg/ml
T3 construct: GST (N); made in house; host or cells: DHSa (DH5a) bacteria
T3 sequence (Q93096 whole entry): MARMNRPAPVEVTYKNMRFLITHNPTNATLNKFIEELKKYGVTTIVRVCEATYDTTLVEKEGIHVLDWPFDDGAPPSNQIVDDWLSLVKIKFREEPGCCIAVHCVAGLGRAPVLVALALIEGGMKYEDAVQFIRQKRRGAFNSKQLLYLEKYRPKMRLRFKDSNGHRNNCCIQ
Excerpt: as §1, §2

Baf3 cells = assay: Baf3 cell proliferation assay; format: cell-based, murine
Procedure: The murine hematopoietic cell line Baf3 was maintained in RPMI 1640 medium supplemented with 10% fetal calf serum (FCS) and murine IL-3 (20 units/ml) as described previously in Damen et al., J. Biol. Chem. 270, 23402 (1995). Human myeloid cell line TF-1 was maintained in RPMI 1640 supplemented with 10% FCS and 40 ng/ml of recombinant human GM-CSF as described previously in Thomassen et al., Clin. Immunol. 95, 85 (2000). For cell proliferation assays, cells were washed in 10% FCS medium twice, resuspended in 10% FCS medium, incubated at 37° C. for 16 hours, and then cultured at 37° C. in 10% FCS medium containing various amounts of cytokines, sodium stibogluconate, or potassium antimonyl tartrate for 3-6 days as indicated. The cell numbers in proliferation assays were determined by an MTT assay or by microscopic cell counting as indicated.

T1 sequence (Q12974 whole entry): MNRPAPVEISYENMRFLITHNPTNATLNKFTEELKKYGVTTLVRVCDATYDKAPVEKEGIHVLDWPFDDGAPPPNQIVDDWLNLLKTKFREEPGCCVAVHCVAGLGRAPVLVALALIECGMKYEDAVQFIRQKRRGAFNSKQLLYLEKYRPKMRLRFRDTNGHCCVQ

SMILES	effect against PRL-2 (PRL-2)	inhibitory activity against GSTm8 (GSTm8)	inhibition of MKP1 (MKP1)	PRL-1 PTPase activity retained (PRL-1)	IL-3-induced Baf3 growth (Baf3 cells; 1,000 μg/ml)	Baf3 proliferation/viability (Baf3 cells; absence of IL-3, day 3 culture)	inhibitory activity against MKP1 (MKP1)
N=C(N)c1ccc(OCCCCCOc2ccc(C(=N)N)cc2)cc1 [pentamidine]	not effective	no obvious inhibitory activity	substantial inhibition	70-80%	–	–	–
CC(=O)N1CCN(c2ccc(OCC3COC(Cn4ccnc4)(c4ccc(Cl)cc4Cl)O3)cc2)CC1 (stereo not drawn) [ketoconazole]	not effective	no obvious inhibitory activity	substantial inhibition	60-70%	–	–	–
O.O.O.O.O.O.O.O.O.O=C([O-])[C@@H]1[O][Sb]2([O-])([O][Sb]34([OH])[O][C@H]([C@H](O)CO)[C@H]([O]3)[C@H](C(=O)[O-])[O]4)[O][C@H]([C@H](O)CO)[C@@H]1[O]2.[Na+].[Na+].[Na+] [sodium stibogluconate]	–	–	no obvious effects	–	suppressed IL-3-induced Baf3 growth	failed to support cell proliferation or maintain cell viability	no obvious inhibitory activity
